# Assay results from US20250143299A1, “METHODS AND COMPOSITIONS FOR CONTROLLING PESTS IN VEGETABLES” (Globachem NV, priority 2022, published 2025).
# Columns and labels:
# Type in all cases: in vivo
# Myzus persicae = assay: Example 10 potato trial, Myzus persicae (green aphids, MYZUPE) control; details: appl. AB
# From the text: Potatoes—Myzus persicae (Green Aphids)—MYZUPE
# Potatoes, variety Agata, 4 replicates per plot. A water volume of 200 L water/ha was used for each application. Two applications were made at a 14d interval.
# Application made at the occurrence of the insects. Application A was made at Stage BBCH 38-41, application B was made 14 days later at Stage BBCH 41-43.
# Insects present at the time of application: at App A 93 aphids per 25 leaves at App B in untreated: 160 aphids per 25 leaves
# Potato = assay: Example 8 Trial 1 phytotoxicity, general injury (PHYGEN) on potato; set-up: scale not given here; details: appl. AB
# From the text: Trial 1: Potatoes, variety Lady Amarilla, 4 replicates per plot, each plot at least 25 m^2. A water volume of 200 L water/ha was used for each application. Two applications were made at a 14d interval.
# Application made at the occurrence of the insects. Application A was made at Stage BBCH 36, application B was made 14 days later at Stage BBCH 51.
# Acyrthosiphon pisum = assay: Example 6 pea trial, Acyrthosiphon pisum (pea aphid) control; details: appl. A
# From the text: Peas—Acyrthosiphon pisum (Pea Aphid)
# Trial conducted on peas, variety Navarro, 4 replicates per plot. Each plot was at least 12 m^2, a water volume of 200 L water per ha was used for the application.
# Insects present at the time of application A: 106 aphids per 20 shoots. The stage of the crop at application A was BBCH 75-77, and at application B, (14 DAA) BBCH 79-81.
smiles,measurement,setting,value
"CCCCCCCCC(=O)O [PA, pelargonic acid]","COUINS, #/25 leaves","Myzus persicae; 585 g/ha (0.9 L/ha), 3 DAA",38.8 % UNCK
same,"COUINS, #/25 leaves","Myzus persicae; 585 g/ha (0.9 L/ha), 3 DAB",68.8 % UNCK
same,"COUINS, #/25 leaves","Myzus persicae; 585 g/ha (0.9 L/ha), 7 DAA",48.7 % UNCK
same,"COUINS, #/25 leaves","Myzus persicae; 585 g/ha (0.9 L/ha), 7 DAB",68.4 % UNCK
same,"COUINS, #/25 leaves","Myzus persicae; 585 g/ha (0.9 L/ha), 14 DAA",52.3 % UNCK
same,"COUINS, #/25 leaves","Myzus persicae; 585 g/ha (0.9 L/ha), 14 DAB",73.4 % UNCK
same,"COUINS, #/25 leaves","Myzus persicae; 975 g/ha (1.5 L/ha), 3 DAA",42.9 % UNCK
same,"COUINS, #/25 leaves","Myzus persicae; 975 g/ha (1.5 L/ha), 3 DAB",72.6 % UNCK
same,"COUINS, #/25 leaves","Myzus persicae; 975 g/ha (1.5 L/ha), 7 DAA",51.2 % UNCK
same,"COUINS, #/25 leaves","Myzus persicae; 975 g/ha (1.5 L/ha), 7 DAB",72.4 % UNCK
same,"COUINS, #/25 leaves","Myzus persicae; 975 g/ha (1.5 L/ha), 14 DAA",54.9 % UNCK
same,"COUINS, #/25 leaves","Myzus persicae; 975 g/ha (1.5 L/ha), 14 DAB",73.2 % UNCK
same,"COUINS, #/25 leaves","Myzus persicae; 1300 g/ha (2.0 L/ha), 3 DAA",61.9 % UNCK
same,"COUINS, #/25 leaves","Myzus persicae; 1300 g/ha (2.0 L/ha), 3 DAB",86.1 % UNCK
same,"COUINS, #/25 leaves","Myzus persicae; 1300 g/ha (2.0 L/ha), 7 DAA",63.9 % UNCK
same,"COUINS, #/25 leaves","Myzus persicae; 1300 g/ha (2.0 L/ha), 7 DAB",86.1 % UNCK
same,"COUINS, #/25 leaves","Myzus persicae; 1300 g/ha (2.0 L/ha), 14 DAA",67.3 % UNCK
same,"COUINS, #/25 leaves","Myzus persicae; 1300 g/ha (2.0 L/ha), 14 DAB",86.5 % UNCK
same,"COUINS, #/25 leaves","Myzus persicae; 2600 g/ha (4.0 L/ha), 3 DAA",68.4 % UNCK
same,"COUINS, #/25 leaves","Myzus persicae; 2600 g/ha (4.0 L/ha), 3 DAB",92.6 % UNCK
same,"COUINS, #/25 leaves","Myzus persicae; 2600 g/ha (4.0 L/ha), 7 DAA",70.8 % UNCK
same,"COUINS, #/25 leaves","Myzus persicae; 2600 g/ha (4.0 L/ha), 7 DAB",92.5 % UNCK
same,"COUINS, #/25 leaves","Myzus persicae; 2600 g/ha (4.0 L/ha), 14 DAA",74.2 % UNCK
same,"COUINS, #/25 leaves","Myzus persicae; 2600 g/ha (4.0 L/ha), 14 DAB",92.4 % UNCK
same,Phytotoxicity - General Injury (PHYGEN),"Potato; 585 g/ha (0.9 L/ha), 3 DAB",0
same,Phytotoxicity - General Injury (PHYGEN),"Potato; 585 g/ha (0.9 L/ha), 7 DAA",0
same,Phytotoxicity - General Injury (PHYGEN),"Potato; 585 g/ha (0.9 L/ha), 8 DAB",0
same,Phytotoxicity - General Injury (PHYGEN),"Potato; 585 g/ha (0.9 L/ha), 15 DAA",0
same,Phytotoxicity - General Injury (PHYGEN),"Potato; 975 g/ha (1.5 L/ha), 3 DAB",0
same,Phytotoxicity - General Injury (PHYGEN),"Potato; 975 g/ha (1.5 L/ha), 7 DAA",1.3
same,Phytotoxicity - General Injury (PHYGEN),"Potato; 975 g/ha (1.5 L/ha), 8 DAB",0
same,Phytotoxicity - General Injury (PHYGEN),"Potato; 975 g/ha (1.5 L/ha), 15 DAA",0
same,Phytotoxicity - General Injury (PHYGEN),"Potato; 1300 g/ha (2.0 L/ha), 3 DAB",1
same,Phytotoxicity - General Injury (PHYGEN),"Potato; 1300 g/ha (2.0 L/ha), 7 DAA",1
same,Phytotoxicity - General Injury (PHYGEN),"Potato; 1300 g/ha (2.0 L/ha), 8 DAB",1
same,Phytotoxicity - General Injury (PHYGEN),"Potato; 1300 g/ha (2.0 L/ha), 15 DAA",0
same,Phytotoxicity - General Injury (PHYGEN),"Potato; 2600 g/ha (4.0 L/ha), 3 DAB",4.5
same,Phytotoxicity - General Injury (PHYGEN),"Potato; 2600 g/ha (4.0 L/ha), 7 DAA",6
same,Phytotoxicity - General Injury (PHYGEN),"Potato; 2600 g/ha (4.0 L/ha), 8 DAB",5
same,Phytotoxicity - General Injury (PHYGEN),"Potato; 2600 g/ha (4.0 L/ha), 15 DAA",4
same,"COUINS (count of insects), 20 shoots","Acyrthosiphon pisum; 585 g/ha (0.9 L/ha), 3 DAA (1st column)",31.44 % UNCK
same,"COUINS (count of insects), 20 shoots","Acyrthosiphon pisum; 585 g/ha (0.9 L/ha), 3 DAA (2nd column)",31.34 % UNCK
same,"COUINS (count of insects), 20 shoots","Acyrthosiphon pisum; 585 g/ha (0.9 L/ha), 3 DAA (3rd column)",30.01 % UNCK
same,"COUINS (count of insects), 20 shoots","Acyrthosiphon pisum; 975 g/ha (1.5 L/ha), 3 DAA (1st column)",34.03 % UNCK
same,"COUINS (count of insects), 20 shoots","Acyrthosiphon pisum; 975 g/ha (1.5 L/ha), 3 DAA (2nd column)",33.84 % UNCK
same,"COUINS (count of insects), 20 shoots","Acyrthosiphon pisum; 975 g/ha (1.5 L/ha), 3 DAA (3rd column)",35.76 % UNCK
same,"COUINS (count of insects), 20 shoots","Acyrthosiphon pisum; 1300 g/ha (2.0 L/ha), 3 DAA (1st column)",52.54 % UNCK
same,"COUINS (count of insects), 20 shoots","Acyrthosiphon pisum; 1300 g/ha (2.0 L/ha), 3 DAA (2nd column)",52.47 % UNCK
same,"COUINS (count of insects), 20 shoots","Acyrthosiphon pisum; 1300 g/ha (2.0 L/ha), 3 DAA (3rd column)",53.62 % UNCK
same,"COUINS (count of insects), 20 shoots","Acyrthosiphon pisum; 2600 g/ha (4.0 L/ha), 3 DAA (1st column)",65.75 % UNCK
same,"COUINS (count of insects), 20 shoots","Acyrthosiphon pisum; 2600 g/ha (4.0 L/ha), 3 DAA (2nd column)",65.86 % UNCK
same,"COUINS (count of insects), 20 shoots","Acyrthosiphon pisum; 2600 g/ha (4.0 L/ha), 3 DAA (3rd column)",65.31 % UNCK
